Drawing on the METLIN SMRT retention time set (Domingo-Almenara et al. 2019), this text covers RP-LC retention time for 33 molecules.

The series can be described thus: gradient 5% acetonitrile 3 min, to 50% in 2 min, to 85% in 15 min, held 3 min, 100 µL/min. The conditions noted are these: column: Zorbax Extend-C18 2.1 x 50 mm; eluents: water / acetonitrile, 0.1% formic acid. Summed up: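 Pure standards were analyzed in mixtures of ~100 molecules using HPLC coupled to a quadrupole time-of-flight mass spectrometer, in both positive and negative ionization mode. Separation used a Zorbax Extend-C18 column (2.1 × 50 mm, 1.8 μm) at 100 μL/min, with water and acetonitrile each containing 0.1% formic acid. Dead and dwell volumes were 40 μL and 900 μL, and data were collected over 3 months. Retention time was read from computationally picked adduct peaks, each inspected manually.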
As to `Cc1noc(C)c1S(=O)(=O)N1CCC(C(=O)NCCc2csc(-c3ccccc3)n2)CC1`, the RP-LC retention time was 877 s. The figure for `COc1cccc(-c2noc(C3CCCN3C(=O)Nc3ccc(OC)c(F)c3)n2)c1` (stereo not drawn) is 946 s. As to `CCOc1ccc(CCNC(=O)C2CCCN(C(=O)c3cc4sccc4n3CC)C2)cc1OCC` (stereo not drawn), the RP-LC retention time was 951 s. As for `Cc1cc(Cl)ccc1OCC(=O)N1CCn2c(nnc2C(C)C)C1`, the figure is 665 s. In the case of `O=C(Nc1cnc(N2CCC(N3CCCCC3)CC2)c(C(=O)O)c1)c1ccc(Br)cc1`, the RP-LC retention time turned out to be 637 s. As for `Cc1ccc2c(=O)c(C(=O)N3CCCC3)cn(CC(=O)Nc3ccccc3C)c2n1`, the figure is 692 s; as for `CCCn1cc(S(=O)(=O)Nc2cccc(C)c2)c2cccnc21`, 845 s. In turn, `Cc1ccc(-c2nc(CN3CCCC(C(=O)NC4CCCCNC4=O)C3)no2)cc1` (stereo not drawn) displayed an RP-LC retention time of 638 s.

In turn, `CN(C)CCNC(=O)CN1C(=O)C2CCCCN2c2ccc(C(=O)N3CCCCC3)cc21` (stereo not drawn) returned an RP-LC retention time of 619 s. As for `O=C(c1ccc(OCC2CCCN(C(=O)c3cccs3)C2)cc1)N1CCOCC1` (stereo not drawn), the figure is 620 s. As for `COCCC(=O)N1CCCN(C2=NS(=O)(=O)C(c3ccc(C(C)C)cc3)=C2C)CC1`, the figure is 817 s; as for `CC(C(=O)NCc1nn(C)c2ccccc12)c1ccccc1` (stereo not drawn), 792 s; as for `COc1ccc(S(=O)(=O)N2CCN(c3cc(C)nc(NC4CCCCC4)n3)CC2)cc1Cl`, 851 s. The figure for `CC(C)OCCCNC(=O)c1cc2c(n(-c3ccc(C(C)C)cc3)c1=O)CCCC2=O` is 989 s; for `CCCN1C(=O)COc2ccc(-c3noc(COc4ccc(OC)cc4)n3)cc21` it is 1100 s; for `Cc1cc(C)nc(SCc2nnc(SCC(=O)Nc3nccs3)o2)n1` it is 600 s. Molecule `CCc1cccc(NC(=O)Nc2ccc3nncn3c2)c1` displayed an RP-LC retention time of 747 s. As for `COc1ccc(OC)c(-c2cc(C(=O)NCc3nc(C)no3)[nH]n2)c1`, the RP-LC retention time was determined as 662 s. Molecule `CC(C)Cn1c(=O)c2ccccc2n(Cc2nc(-c3cccc(Br)c3)no2)c1=O` showed an RP-LC retention time of 1290 s.

As for `CC(C)n1c(-c2cccc(C(=O)NCc3cccs3)c2)nc2cccnc21`, the RP-LC retention time worked out at 787 s. The figure for `O=S(=O)(Nc1ccc(F)cc1)c1cccc2cccnc12` is 792 s; for `Cc1ccccc1NC(=O)NCCc1nc2cccnc2n1C1CCCC1` it is 708 s.

In turn, `O=C(CCCn1c(=O)c2cccn2c2ccccc21)N1CCN(c2ccccn2)CC1` had an RP-LC retention time of 625 s. As for `O=S(=O)(Cc1ccccc1)N1CCC(c2noc(-c3cnccn3)n2)C1` (stereo not drawn), the figure is 797 s; as for `CCCNC(=O)CCc1c(-c2ccc(Cl)cc2)nc2ccccn12`, 625 s; as for `Cc1cc(C(=O)N2C[C@@H](CO)[C@H](c3nc(C4CC4)no3)C2)c(C)o1`, 706 s. As for `CCOC(=O)N1CCC(NC(=O)c2nc(-c3cnccn3)no2)CC1`, the figure is 631 s; as for `CCc1nc2cc(N3CCC(C(=O)N4CCN(CC)CC4)CC3)cnc2nc1CC`, 590 s; as for `Cc1ccsc1C(=O)N1CCC2(CC1)NCc1ccccc1-n1ccnc12`, 588 s. `CC(C)OCCCNC(=O)C1CCCN(c2ccc(-c3ccccc3)nn2)C1` (stereo not drawn) gave an RP-LC retention time of 683 s.

`CC(C)NC(=O)c1ccc2ccnc(N3CCN(c4ccc(Cl)cc4)CC3)c2c1` returned an RP-LC retention time of 816 s. In the case of `Cc1ccccc1Cc1nc2ccccc2n1CC(N)=O`, the RP-LC retention time came out at 570 s. As for `CCOc1ccc2nc(NC(=O)Cn3nc(C(=O)N4CCCC4)c4ccccc43)sc2c1`, the figure is 894 s.
